{"source": "paper PMC9456400", "about": "(International Journal of Molecular Sciences, 2022)", "key": {"HepG2 cells": {"tested_on": "HepG2 cells", "assay": "Oil Red O staining of neutral lipids", "type": "cell-based, human", "settings": "HepG2, acute exposure 48 h; silibinin 100 μmol/L as co-treatment with lorlatinib", "description": "To confirm these findings, we employed an independent in vitro model of fatty liver disease involving non-tumorigenic HepG2 cells, which are routinely employed as an inducible fatty liver cell model to screen for therapeutic drugs to eliminate lipid accumulation.\n(§1) For assessment of neutral lipid formation, cells were washed in PBS, fixed with 4% paraformaldehyde for 30 min, washed in distilled water, and then briefly incubated in 60% isopropanol. Following equilibration, cells were stained with a working solution (60%) of Oil Red O for 20 min. An Oil Red O stock solution was prepared by dissolving 0.35% w/v Oil Red O in 100 mL 100% isopropanol. HCS LipidTOX™ Green Neutral Lipid Stain (Invitrogen; Cat. #H34475) was employed as a second staining cocktail for visualization of intracellular neutral lipids. Formaldehyde fixation and preparing/using the labeling solution was carried out as per the manufacturer’s instructions."}, "Huh-7 cells [1]": {"tested_on": "Huh-7 cells", "assay": "Oil Red O and LipidTOX staining of neutral lipids", "type": "cell-based, human", "settings": "Huh-7, chronic exposure 7 days; silibinin 10 μmol/L as co-treatment with lorlatinib", "description": "We first employed a conventional index of fatty liver disease––the intracellular accumulation of neutral lipids (steatosis)––to confirm the ability of lorlatinib to trigger hypertriglyceridemia and hypercholesteremia.\nas §1"}, "Huh-7 cells [2]": {"tested_on": "Huh-7 cells", "assay": "MTT cell viability assay", "type": "cell-based", "settings": "Homo sapiens; Huh-7, MTT", "procedure": "(§2) Cell viability effects of lorlatinib were determined using the colorimetric MTT (3-4,5-dimethylthiazol-2-yl-2,5-diphenyl-tetrazolium bromide) reduction assay. Dose–response curves to graded concentrations of lorlatinib were plotted as a percentage of the control cell absorbance, which was obtained from control cells containing the vehicle (DMSO v/v) processed simultaneously. For each treatment, cell viability was evaluated using the following equation: (OD570 of the treated sample/OD570 of the untreated sample) × 100."}, "[3]": {"settings": "cited from earlier work"}, "[4]": {"tested_on": "H3122 NSCLC cell line (ALK rearrangement variant 1)", "assay": "MTT cell viability assay", "settings": "read-out: IC50 (cell viability)", "procedure": "as §2"}, "[5]": {"tested_on": "ALK-negative A549 NSCLC cells", "assay": "MTT cell viability assay", "settings": "read-out: IC50 (cell viability)", "procedure": "as §2"}, "[6]": {"tested_on": "H2228 NSCLC cell line (ALK rearrangement variant 3a/b)", "assay": "MTT cell viability assay", "settings": "read-out: IC50 (cell viability)", "procedure": "as §2"}, "[7]": {"settings": "single 100 mg oral dose ref 46, 47"}}, "data": [{"smiles": "C[C@H]1Oc2cc(cnc2N)-c2c(nn(C)c2C#N)CN(C)C(=O)c2ccc(F)cc21", "note": "[lorlatinib, (10R)-7-amino-12-fluoro-2,10,16-trimethyl-15-oxo-10,15,16,17-tetrahydro-2H-8,4-(metheno)pyrazolo [4,3-h][2,5,11]-benzoxadiazacyclotetradecine-3-carbonitrile]", "values": [{"measurement": "Accumulation of neutral lipids (lipid droplets)", "setting": "HepG2 cells", "result": "greater number of larger lipid droplets than untreated cells"}, {"measurement": "Accumulation of neutral lipids (lipid droplets)", "setting": "Huh-7 cells [1]", "result": "accumulated large amounts of lipid droplet-like neutral lipids"}, {"measurement": "IC50", "setting": "Huh-7 cells [2]", "result": "22 ± 5", "unit": "µM"}, {"measurement": "Fraction metabolized during first-pass hepatic or pre-systemic metabolism", "setting": "[3]; human, in vivo", "result": 12, "unit": "%"}, {"measurement": "Hepatic extraction ratio", "setting": "[3]; human, in vivo", "result": "< 30", "unit": "%"}, {"measurement": "Peak plasma concentration", "setting": "[3]; [7]", "result": "> 2", "unit": "µmol/L"}, {"measurement": "Time to peak plasma concentration", "setting": "[3]; [7]", "result": "0.5 to 4", "unit": "h"}, {"measurement": "IC50", "setting": "[4]", "result": "3 ± 0.2", "unit": "nM"}, {"measurement": "IC50", "setting": "[5]", "result": "19 ± 5", "unit": "µM"}, {"measurement": "IC50", "setting": "[6]", "result": "900 ± 200", "unit": "nM"}]}]}
